Data from PMC11277932, “Australian Marine and Terrestrial Streptomyces-Derived Surugamides, and Synthetic Analogs, and Their Ability to Inhibit Dirofilaria immitis (Heartworm) Motility” (Marine Drugs, 2024).
Converted amounts (≈) assume the structure as drawn. Square brackets hold non-standard residues; d marks the D form. Peptide text beside a SMILES is read from it. * marks the point of attachment. d(aIle) = CC[C@H](C)[C@@H](N)C(=O)O; hArg = N=C(N)NCCCC[C@H](N)C(=O)O; Lys(Me) = CNCCCC[C@H](N)C(=O)O; Lauroyl = CCCCCCCCCCCC(=O)*; Pyruvoyl = CC(=O)C(=O)*; Pentanoyl = CCCCC(=O)*; Propionyl = CCC(=O)*; Bz = O=C(c1ccccc1)*; For = O=C*

Tests used:
[1] = test system: Dirofilaria immitis microfilariae; conditions: pure compounds; ~72 h
[2] = test system: Haemonchus contortus L1–L3 larvae; conditions: pure compounds; four days
[3] = test system: human colorectal (SW620) carcinoma cells; conditions: MTT
Staphylococcus aureus = test system: Staphylococcus aureus; design: method as in PMID 24713874; conditions: cited from earlier work
Erwinia amylovora = test system: Erwinia amylovora; design: method as in PMID 24317473; conditions: at 25 μM; cited from earlier work
[4] = test system: human colorectal (SW620) carcinoma cells; assay: cells; conditions: SW-620, read-out: Human Colorectal Carcinoma Cells (SW620) IC50
[5] = test system: Dirofilaria immitis microfilariae; assay: microbe, parasite or virus in culture; conditions: 72 h, read-out: D. immitis mf Motility EC50, ~72 h
[6] = test system: Haemonchus contortus L1–L3 larvae; assay: microbe, parasite or virus in culture; conditions: 96 h, read-out: H. contortus L1–L3 Larvae Development EC50

Row | Structure (SMILES) | D. immitis mf Motility EC50 [1] | H. contortus L1–L3 Larvae Development EC50 [2] | Human Colorectal Carcinoma Cells (SW620) IC50 [3] | Staphylococcus aureus MIC (Staphylococcus aureus) | inhibition of Erwinia amylovora (Erwinia amylovora) | IC50 [4] | EC50 [5] | EC50 [6]
1 | CC[C@@H](C)[C@H]1NC(=O)[C@H]([C@@H](C)CC)NC(=O)[C@@H](C)NC(=O)[C@H]([C@@H](C)CC)NC(=O)[C@@H](CC(C)C)NC(=O)[C@@H](Cc2ccccc2)NC(=O)[C@H]([C@@H](C)CC)NC(=O)[C@H](CCCCN)NC1=O [surugamide S1 (9), cyclo[-L-Ile^1-D-Ile^2-L-Lys^3-L-Ile^4-D-Phe^5-D-Leu^6-L-Ile^7-D-Ala^8-]] (cyclo(I[dI]KI[dF][dL]I[dA])) | >25 µg/mL | >25 µg/mL |  |  |  |  |  | 
2 | CC[C@H](C)[C@@H]1NC(=O)[C@H](CCCCN)NC(=O)[C@@H]([C@@H](C)CC)NC(=O)[C@H]([C@@H](C)CC)NC(=O)[C@@H](C)NC(=O)[C@H]([C@@H](C)CC)NC(=O)[C@@H](CC(C)C)NC(=O)[C@@H](Cc2ccccc2)NC1=O [surugamide A (3), surugamide A] (cyclo(I[d(aIle)]KI[dF][dL]I[dA])) | >25 µg/mL | >25 µg/mL | >30 µg/mL | 10 µM | 40% |  |  | 
3 | CC[C@H](C)[C@@H]1NC(=O)[C@H](CCCCNC(C)=O)NC(=O)[C@@H]([C@@H](C)CC)NC(=O)[C@H]([C@@H](C)CC)NC(=O)[C@@H](C)NC(=O)[C@H]([C@@H](C)CC)NC(=O)[C@@H](CC(C)C)NC(=O)[C@@H](Cc2ccccc2)NC1=O [acyl-surugamide A2 (6), acyl-surugamide A2] (cyclo(I[d(aIle)]K(Ac)I[dF][dL]I[dA])) | >25 µg/mL | >25 µg/mL | >30 µg/mL |  |  |  |  | 
4 | CCCCCC[C@H]1C(=O)O[C@H](C)[C@H](NC(=O)c2cccc(NC=O)c2O)C(=O)O[C@@H](C)[C@@H]1OC(=O)C(C)C [antimycin A2a (2), antimycin A2a] |  |  |  |  |  | 0.08 µg/mL (≈ 0.15 µM) | 0.0013 to 0.0021 µg/mL (≈ 0.00243 to 0.00393 µM) | 1.8 µg/mL (≈ 3.37 µM)
5 | CC[C@H](C)[C@@H]1NC(=O)[C@H](CCCCNC(=N)N)NC(=O)[C@@H]([C@@H](C)CC)NC(=O)[C@H]([C@@H](C)CC)NC(=O)[C@@H](C)NC(=O)[C@H]([C@@H](C)CC)NC(=O)[C@@H](CC(C)C)NC(=O)[C@@H](Cc2ccccc2)NC1=O [surugamide S4 (12), surugamide S4] (cyclo(I[d(aIle)][hArg]I[dF][dL]I[dA])) | >25 µg/mL | >25 µg/mL |  |  |  |  |  | 
6 | CCCC[C@H]1C(=O)O[C@H](C)[C@H](NC(=O)c2cccc(NC=O)c2O)C(=O)O[C@@H](C)[C@@H]1OC(=O)C(C)C [antimycin A4a (1), antimycin A4a] |  |  |  |  |  | 0.061 µg/mL (≈ 0.12 µM) | 0.0013 to 0.0021 µg/mL (≈ 0.00257 to 0.00415 µM) | 3.5 µg/mL (≈ 6.91 µM)
7 | CC[C@H](C)[C@@H]1NC(=O)[C@H](C)NC(=O)[C@@H]([C@@H](C)CC)NC(=O)[C@H]([C@@H](C)CC)NC(=O)[C@@H](C)NC(=O)[C@H]([C@@H](C)CC)NC(=O)[C@@H](CC(C)C)NC(=O)[C@@H](Cc2ccccc2)NC1=O [surugamide S3 (11), surugamide S3] (cyclo(I[d(aIle)]AI[dF][dL]I[dA])) | > 25 µg/mL | >25 µg/mL |  |  |  |  |  | 
8 | CCCCCCCCCCCC(=O)NCCCC[C@@H]1NC(=O)[C@@H]([C@@H](C)CC)NC(=O)[C@H]([C@@H](C)CC)NC(=O)[C@@H](C)NC(=O)[C@H]([C@@H](C)CC)NC(=O)[C@@H](CC(C)C)NC(=O)[C@@H](Cc2ccccc2)NC(=O)[C@H]([C@@H](C)CC)NC1=O [acyl-surugamide AS2 (14), acyl-surugamide AS2] (cyclo(I[d(aIle)]K(Lauroyl)I[dF][dL]I[dA])) | >25 µg/mL | >25 µg/mL | >30 µg/mL |  |  |  |  | 
9 | CC[C@H](C)[C@@H]1NC(=O)[C@H](CCCCNC(=O)C(C)=O)NC(=O)[C@@H]([C@@H](C)CC)NC(=O)[C@H]([C@@H](C)CC)NC(=O)[C@@H](C)NC(=O)[C@H]([C@@H](C)CC)NC(=O)[C@@H](CC(C)C)NC(=O)[C@@H](Cc2ccccc2)NC1=O [acyl-surugamide A4 (8), acyl-surugamide A4] (cyclo(I[d(aIle)]K(Pyruvoyl)I[dF][dL]I[dA])) | 16.0 µg/mL | >25 µg/mL | >30 µg/mL |  |  |  |  | 
10 | CC[C@H](C)[C@@H]1NC(=O)[C@H](CCCCNC)NC(=O)[C@@H]([C@@H](C)CC)NC(=O)[C@H]([C@@H](C)CC)NC(=O)[C@@H](C)NC(=O)[C@H]([C@@H](C)CC)NC(=O)[C@@H](CC(C)C)NC(=O)[C@@H](Cc2ccccc2)NC1=O [surugamide K (4), surugamide K] (cyclo(I[d(aIle)][Lys(Me)]I[dF][dL]I[dA])) | >25 µg/mL | >25 µg/mL | >30 µg/mL |  |  |  |  | 
11 | CC[C@H](C)[C@@H]1NC(=O)[C@H](CCCNC(=N)N)NC(=O)[C@@H]([C@@H](C)CC)NC(=O)[C@H]([C@@H](C)CC)NC(=O)[C@@H](C)NC(=O)[C@H]([C@@H](C)CC)NC(=O)[C@@H](CC(C)C)NC(=O)[C@@H](Cc2ccccc2)NC1=O [surugamide S2 (10), surugamide S2] (cyclo(I[d(aIle)]RI[dF][dL]I[dA])) | > 25 µg/mL | >25 µg/mL |  |  |  |  |  | 
12 | CCCCC(=O)NCCCC[C@@H]1NC(=O)[C@@H]([C@@H](C)CC)NC(=O)[C@H]([C@@H](C)CC)NC(=O)[C@@H](C)NC(=O)[C@H]([C@@H](C)CC)NC(=O)[C@@H](CC(C)C)NC(=O)[C@@H](Cc2ccccc2)NC(=O)[C@H]([C@@H](C)CC)NC1=O [acyl-surugamide AS1 (13), acyl-surugamide AS1] (cyclo(I[d(aIle)]K(Pentanoyl)I[dF][dL]I[dA])) | 21 µg/mL | >25 µg/mL | >30 µg/mL |  |  |  |  | 
13 | CC[C@H](C)[C@@H]1NC(=O)[C@H](CCCCNC=O)NC(=O)[C@@H]([C@@H](C)CC)NC(=O)[C@H]([C@@H](C)CC)NC(=O)[C@@H](C)NC(=O)[C@H]([C@@H](C)CC)NC(=O)[C@@H](CC(C)C)NC(=O)[C@@H](Cc2ccccc2)NC1=O [acyl-surugamide A1 (5), acyl-surugamide A1] (cyclo(I[d(aIle)]K(For)I[dF][dL]I[dA])) | >25 µg/mL | >25 µg/mL | >30 µg/mL |  |  |  |  | 
14 | CC[C@H](C)[C@@H]1NC(=O)[C@H](CCCCNC(=O)c2ccccc2)NC(=O)[C@@H]([C@@H](C)CC)NC(=O)[C@H]([C@@H](C)CC)NC(=O)[C@@H](C)NC(=O)[C@H]([C@@H](C)CC)NC(=O)[C@@H](CC(C)C)NC(=O)[C@@H](Cc2ccccc2)NC1=O [acyl-surugamide AS3 (15), acyl-surugamide AS3] (cyclo(I[d(aIle)]K(Bz)I[dF][dL]I[dA])) | 3.4 µg/mL | >25 µg/mL | >30 µg/mL |  |  |  |  | 
15 | CCC(=O)NCCCC[C@@H]1NC(=O)[C@@H]([C@@H](C)CC)NC(=O)[C@H]([C@@H](C)CC)NC(=O)[C@@H](C)NC(=O)[C@H]([C@@H](C)CC)NC(=O)[C@@H](CC(C)C)NC(=O)[C@@H](Cc2ccccc2)NC(=O)[C@H]([C@@H](C)CC)NC1=O [acyl-surugamide A3 (7), acyl-surugamide A3] (cyclo(I[d(aIle)]K(Propionyl)I[dF][dL]I[dA])) | 3.3 µg/mL | >25 µg/mL | > 30 µg/mL |  |  |  |  | 
